Experimental data as given in PMC3291892 (Bioconjugate Chemistry, 2012).

Key:
[1] = biological target: T1, hA3AR (Homo sapiens, UniProt P0DMS8); type: cell-based; conditions: at 10 μM; relative to NECA 10 μM
T1 sequence (P0DMS8 1-318): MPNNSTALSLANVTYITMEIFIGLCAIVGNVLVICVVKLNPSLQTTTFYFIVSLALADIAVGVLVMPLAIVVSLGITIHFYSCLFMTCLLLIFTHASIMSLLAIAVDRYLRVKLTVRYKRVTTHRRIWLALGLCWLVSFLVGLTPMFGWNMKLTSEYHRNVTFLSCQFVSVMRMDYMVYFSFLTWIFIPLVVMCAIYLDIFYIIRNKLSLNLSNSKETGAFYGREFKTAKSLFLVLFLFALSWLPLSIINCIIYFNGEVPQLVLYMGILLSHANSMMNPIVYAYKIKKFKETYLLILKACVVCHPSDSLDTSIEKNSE

[2] = biological target: T1, hA3AR; experiment: Radioligand binding at hA3AR; conditions: A3AR versus A1AR

| Molecule | A3AR efficacy in the functional assay (in words) [1] | selectivity for A3AR in comparison to the A1AR [2] [fold] |
| --- | --- | --- |
| CNC(=O)[C@@]12C[C@@H]1[C@@H](n1cnc3c(NCc4cccc(C#CCCCCCc5cn(-c6ccc(F)c([N+](=O)[O-])c6)nn5)c4)nc(Cl)nc31)[C@H](O)[C@@H]2O [Compound 14, (1S, 2R, 3S, 4R, 5S)-4-(2-Chloro-6-(3-(7-(1-(4-fluoro-3-nitrophenyl)-1H-1,2,3-triazol-4-yl)hept-1-ynyl)benzylamino)-9H-purin-9-yl)-2,3-dihydroxybicyclo[3.1.0]hexane-1-carboxylic acid-N-methylamide] | intermediate efficacy |  |
| (1S, 2R, 3S, 4R, 5S)-4-[2-Chloro-6-{3-(1,8-nonadiynyl)}-9H-purin -9-yl]- 2, 3-dihydroxybicyclo[3.1.0]hexane-1-carboxylic acid N-methylamide [Compound 11] | intermediate efficacy |  |
| (1S, 2R, 3S, 4R, 5S)-4-[2-Chloro-6-{3-(1,7-octadiynyl)}-9H-purin -9-yl]- 2, 3-dihydroxybicyclo[3.1.0]hexane-1-carboxylic acid N-methylamide [Compound 10] | intermediate efficacy |  |

Now from value to molecule:

| A3AR efficacy in the functional assay (in words) [1] | selectivity for A3AR in comparison to the A1AR [2] [fold] | Molecule |
| --- | --- | --- |
| intermediate efficacy |  | CNC(=O)[C@@]12C[C@@H]1[C@@H](n1cnc3c(NCc4cccc(C#CCCCc5cn(-c6ccc(F)c(N)c6)nn5)c4)nc(Cl)nc31)[C@H](O)[C@@H]2O [Compound 16, (1S, 2R, 3S, 4R, 5S)-4-(2-Chloro-6-(3-(5-(1-(4-fluoro-3-amino-phenyl)-1H-1,2,3-triazol-4-yl)pent-1-ynyl)benzylamino)-9H-purin-9-yl)-2,3-dihydroxybicyclo[3.1.0]hexane-1-carboxylic acid-N-methylamide] |
|  | 270 | C#CCNc1nc(Cl)nc2c1ncn2[C@H]1[C@H](O)[C@H](O)[C@]2(C(=O)NC)C[C@H]12 [Compound 31, (1S, 2R, 3S, 4R, 5S)-4-(2-Chloro-6-(prop-2-ynylamino)-9H-purin-9-yl)-2,3-dihydroxy-N-methylbicyclo[3.1.0]hexane-1-carboxamide] |
